The test system of assay [1] is Male P rats. Briefly: Animal model of excessive (binge) alcohol consumption, operant alcohol responding. It counts as in vivo, rat. As to conditions: N=5 per compound, oral gavage, lever press for alcohol, FIG. 13, FIG. 14. As for the experimental part:
Male P rats are used as subjects. All animals are individually housed in shoebox cages in a temperature- and humidity-controlled room on a 12 h:12 h light/dark cycle (lights on at 8:00 AM, off at 8:00 PM) with food and water available ad libitum. All behavioral training and testing take place between 8:00 AM and 10:00 AM. All procedures are conducted in accordance with the NIH Guide for the Care and Use of Laboratory Animals.
10% (v/v) EtOH and 3% (w/v) sucrose solutions are prepared using previously published procedures (Harvey et al. J. Neurosci. 2002, 22, 3765-3775; June et al. Neuropsychopharmacology 2003, 28, 2124-2137) with deionized water. The solutions are prepared daily. Compounds are administered by oral gavage (20-60 mg/kg) in all studies (e.g., alcohol responding, sucrose responding) as indicated in FIG. 12. The compounds are mixed in deionized water and administered by gavage in an injection volume of 1 mL/kg 25 min prior to the behavioral task. […]
Approximately 100 μL of whole blood is collected from a rat's tail tip into a heparin-coated microsample tube. […] The results are calculated in units of mg/dL and printed within 20 s of each trial as previously reported (Harvey et al., J. Neurosci. 2002, 22, 3765-3775; June et al. Neuropsychopharmacology 2003, 28, 2124-2137). […]

The target of assay [2] is T1, GABAA receptor α5 subtype with β2 and γ2 subunits (Homo sapiens, UniProt P18507+P31644).
T1 construct: expressed in transfected cells; host or cells: HEKT cell line, transient transfection with Fugene 6
Briefly: Competition binding assay with [3H]flunitrazepam. The text has this:
(§1) Bound radioactivity is quantified by liquid scintillation counting.

For assay [3], the target named is T2, GABAA receptor α3 subtype with β2 and γ2 subunits (Homo sapiens, UniProt P18507+P34903).
T2 construct: expressed in transfected cells; host or cells: HEKT cell line, transient transfection with Fugene 6
The assay is described as follows: Competition binding assay with [3H]flunitrazepam.
Description: as §1

The target in assay [4] is T3, GABAA receptor α2 subtype with β2 and γ2 subunits (Homo sapiens, UniProt P18507+P47869).
T3 construct: expressed in transfected cells; host or cells: HEKT cell line, transient transfection with Fugene 6
The assay is described as follows: Competition binding assay with [3H]flunitrazepam.
Description: as §1

The target in assay [5] is T4, GABAA receptor α1 subtype with β2 and γ2 subunits (Homo sapiens, UniProt P14867+P18507).
T4 construct: expressed in transfected cells; host or cells: HEKT cell line, transient transfection with Fugene 6
The assay is described as follows: Competition binding assay with [3H]flunitrazepam.
Description: as §1

The structures appear in SMILES notation. pKi: −log10 of the molar value. Structures can show the parent of a compound that is named as a salt. Where two headings read alike, the source gives them in different places.

For `CCCOc1cc2c(cn1)[nH]c1ccncc12` [Compound 2, 8-Propoxypyridino[4′,3′-5,4]pyrrolo[3,2-c]pyridine hydrochloride], the “effect on excessive alcohol consumption” value in assay [1] is recorded as “Reduce Excessive Alcohol Consumption”. Moreover, the pKi in assay [2] ([3H]flunitrazepam, α5β2γ2, HEKT cells, read-out: GABAA RECEPTOR BINDING α5) was 7.91; in assay [3] ([3H]flunitrazepam, α3β2γ2, HEKT cells, read-out: GABAA RECEPTOR BINDING α3) it was 8.39; in assay [4] ([3H]flunitrazepam, α2β2γ2, HEKT cells, read-out: GABAA RECEPTOR BINDING α2), 9.48; in assay [5] ([3H]flunitrazepam, α1β2γ2, HEKT cells, read-out: GABAA RECEPTOR BINDING α1) it was 8.01.

Consider `CCCOc1cc2c(cn1)[nH]c1cnccc12` [Compound 4, 3-Propoxy pyridino[4′,3′-4,5]pyrrolo[2,3-c]pyridine hydrochloride], for which the “effect on excessive alcohol consumption” value in assay [1] is reported as “Reduce Excessive Alcohol Consumption”. The pKi in assay [2] is 7.37; in assay [3], 8.83; in assay [4], 8.20; in assay [5], 8.24.
